Results as given in paper PMC12242654, “Design, Synthesis, and In Vitro Evaluation of the Leishmanicidal Activity of New Aromatic Symmetrical 1,4-Disubstituted 1,2,3-Bistriazoles” (ACS Omega, 2025).
Read-outs that look alike come from different tables or passages of the source.

Assays:
[1] = test system: promastigote forms of L. amazonensis; assay: Leishmanicidal activity against promastigote forms of L. amazonensis (resazurin); format: cell-based, Leishmania amazonensis; details: L. amazonensis promastigotes, 72 h, read-out: IC50 ± SD promastigote
Method: Promastigotes of L. amazonensis (MHOM/BR/71973/M2269) were grown on 24-well plates in Schneider’s Drosophila medium (Sigma, USA) supplemented with 10.0% (v/v) heat-inactivated fetal bovine serum and 1.0% penicillin (10000 UI mL^–1)/streptomycin (10.0 mg mL^–1) (Sigma, USA). Cells were harvested in the log phase, suspended in a fresh medium, counted in Neubauer’s chamber, and adjusted to a concentration of 1 × 10^6 cells mL^–1 using 24-well plates. The compounds were added to promastigote cultures (1 × 10^6 cells mL^–1) in the range of 0.10–40.00 μg mL^–1, solubilized in dimethyl sulfoxide (DMSO) (0.6%, v/v in all wells), and incubated at 25 °C. After 72 h of incubation, resazurin was used to detect cellular metabolic activity for the determination of 50.0% inhibitory growth concentration (IC50-promastigote). All tests were performed in triplicate at three different times, and amphotericin B (Sigma) was used as the reference drug.

[2] = Murine cytotoxicity by MTT method; format: cell-based; details: mouse; murine peritoneal macrophages, MTT; read-out: murine macrophage CC50 ± SD
Method: (§1) Murine cytotoxicity was assessed by the 3-(4,5-dimethylthiazol-2-yl)-2,5-diphenyltetrazolium bromide (MTT) method using murine peritoneal macrophages to determine the CC50. For this purpose, murine peritoneal macrophages were maintained in RPMI 1640 medium at 37 °C and 5% CO2, arranged in 96-well plates at a ratio of […], where the compounds to be evaluated were added at concentrations of 500, 250, 125, 62.5, 31.25, 15.625, 7.8125, and 3.90 μg mL^–1 and incubated for 24, 48, and 72 h. After incubation, 10 μL of MTT (at a concentration of 5 mg mL^–1) was added per well, with a further 4 h incubation. The cells were lysed with dimethyl sulfoxide (DMSO) and evaluated in a Shimadzu UV/vis spectrophotometer (double beam, model 2550) at 570 nm to determine the CC50 compared to the control without the addition of compounds or drugs. , The optical density obtained was then converted to the percentage of inhibition using eq so that the CC50 could then be determined by regression analysis of the data. %inhibition=[(DOcontrol−DOcompound)/DOcontrol]×100 1
(§2) The percentage of viable cells was calculated considering the cell culture control (medium + cells + DMSO = 0.6% v/v).

[3] = Cytotoxicity on human fibroblast culture (sulforodamine B (SRB) test); format: cell-based; details: read-out: human fibroblasts CC50 ± SD
[4] = test system: amastigote forms of L. amazonensis; assay: Leishmanicidal activity against intracellular amastigote forms of L. amazonensis in murine peritoneal macrophages; format: cell-based; details: Leishmania amazonensis, Peritoneal macrophage; intracellular amastigotes in murine peritoneal macrophages, 72 h, Giemsa; read-out: IC50 ± SD amastigote
Method: To evaluate the leishmanicidal activity in amastigotes, murine peritoneal macrophages were used and maintained in RPMI-1640 medium at 37 °C and 5% CO2 in 24-well plates. After 24 h, the nonadherent macrophages were removed, and these cells were infected with Leishmania (L.) amazonensis promastigotes in the stationary phase of the proliferation curve at a ratio of 10:1. The day after infection, the noninternalized parasites were removed, and the compounds to be evaluated were added at concentrations of 40, 10, 5, and 0.1 μg mL^–1 and incubated for 72 h at 37 °C and 5% CO2; they were then fixed in methanol and stained with 10% Giemsa (MERCK) for subsequent analysis by light microscopy. To assess the effect of the compounds, the number of amastigotes/macrophages and the number of infected macrophages were evaluated. The percentage of infected cells was considered to illustrate the results since these are expressed as CI50-amastigote. ,

[5] = test system: murine peritoneal macrophages; assay: Murine cytotoxicity by MTT method; format: cell-based
Method: as §1, §2

Compound	IC50 ([1]; Leishmania amazonensis)	CC50 [2]	CC50 [3]	IC50 [4]	IC50 [1]	CC50 [5]
O=[N+]([O-])c1ccc(-c2cn(CC(O)Cn3cc(-c4ccc([N+](=O)[O-])cc4)nn3)nn2)cc1 [8b, 1,3-Bis(4-(4-nitrophenyl)-1H-1,2,3-triazol-1-yl)propan-2-ol]	48.4 ± 1.3 µM	305 ± 7.84 µM				
Cc1ccc(-c2cn(CC(O)Cn3cc(-c4ccc(C)cc4)nn3)nn2)cc1 [8c, 1,3-Bis(4-(p-tolyl)-1H-1,2,3-triazol-1-yl)propan-2-ol]	116 ± 2.61 µM	282.2 ± 1.65 µM				
OC(Cn1cc(C(=NNc2nc3ccccc3s2)c2ccccc2)nn1)Cn1cc(C(=NNc2nc3ccccc3s2)c2ccccc2)nn1 (centres unmarked) [12c, 1,3-Bis(4-((2-(benzo[d]thiazol-2-yl)hydrazineylidene)(phenyl)methyl)-1H-1,2,3-triazol-1-yl)propan-2-ol]	19.2 ± 1.4 µM	51.3 ± 8.57 µM				
C[C@@H]1[C@H](O)[C@@H](C)/C=C/C=C/C=C/C=C/C=C/C=C/C=C/[C@H](O[C@@H]2O[C@H](C)[C@@H](O)[C@H](N)[C@@H]2O)C[C@@H]2O[C@](O)(C[C@@H](O)C[C@@H](O)[C@H](O)CC[C@@H](O)C[C@@H](O)CC(=O)O[C@H]1C)C[C@H](O)[C@H]2C(=O)O [amph B, amphotericin B, reference compound]	1.4 ± 0.04 µM	27.1 ± 3.19 µM	22.95 ± 0.1 µM	1.9 ± 0.07 µM		
OC(c1ccccc1)c1cn(Cc2ccccc2)nn1 (centres unmarked) [compound 4]	42.8 ± 2.66 µM	322 ± 10.4 µM				
OC(Cn1cc(C(O)c2ccccc2)nn1)Cn1cc(C(O)c2ccccc2)nn1 (centres unmarked) [compound 9, ((2-Hydroxypropane-1,3-diyl)bis(1H-1,2,3-triazole-1,4-diyl))bis(phenylmethanol)]	62.3 ± 3.29 µM	144.3 ± 0.94 µM				
O=C(c1ccccc1)c1cn(CC(O)Cn2cc(C(=O)c3ccccc3)nn2)nn1 [compound 10, ((2-Hydroxypropane-1,3-diyl)bis(1H-1,2,3-triazole-1,4-diyl))bis(phenylmethanone)]	44.1 ± 2.36 µM	383.9 ± 3.21 µM	568.1 ± 2.58 µM	68.4 ± 2.61 µM		
N′,N‴-(((2-Hydroxypropane-1,3-diyl)bis(1H-1,2,3-triazole-1,4-diyl))bis(phenylmethaneylylidene))di(benzohydrazide) [12b]					34.46 ± 0.28 µM	118 ± 17.1 µM
